From paper PMC5778071, “Development of matrix metalloproteinase-targeted probes for lung inflammation detection with positron emission tomography” (Scientific Reports, 2018) come the findings set out here.

Holding throughout (assay type): biochemical
One assay deals with T1, recombinant human MMP-13 (Homo sapiens, UniProt P45452).
T1 construct: purchased Anaspec AS72011
Description: Competitive fluorogenic enzyme activity assay, MMP-13. The following applies: fluorogenic substrate 5 μM, 5 nM enzyme, 30 min; read-out: IC50 toward MMP-13. On the procedure:
(§1) Determination of the IC50 toward human MMP-2, MMP-9, MMP-12 and MMP-13 was performed by a competitive enzyme activity assay according to a literature procedure. The assay was performed by incubating 5 μM of the synthesized fluorogenic peptide substrate Mca-Pro-Leu-Gly-Leu-Dpa(Dnp)-Ala-Arg-NH2 with 5 nM recombinant human MMP-2 (AS72005, Anaspec Inc., CA, USA), MMP-9 (911-MP, R&D Systems, MN, USA), MMP-12 (917-MP, R&D Systems) and MMP-13 (AS72011, Anaspec) along with various concentrations of ML5, I-ML5, PFB, PFP, IPFB, and IPFP (0.2–365 nM) in a buffer (pH 7.5, 50 mM tris(hydroxymethyl)aminomethane, 10 mM calcium chloride, 150 mM sodium chloride, and 0.01% Brij-35) containing 5% dimethyl sulfoxide. The increase in fluorescence over time was measured using a SpectraMax M2e microplate reader (Molecular Devices Inc., CA, USA) with an excitation wavelength of 325 nm and an emission wavelength of 395 nm. The fluorescence intensity after 30 min was plotted as a function of the concentration of each of the compounds on a logarithmic scale to produce an inhibition curve that was subsequently fit with a sigmoidal function by a least squares method. The IC50 values were calculated from the inhibition curves using GraphPad Prism 6 (GraphPad Software, Inc., CA, USA).

Another assay concerns the target T2, recombinant human MMP-2 (Homo sapiens, UniProt P08253).
T2 construct: purchased Anaspec Inc. AS72005
T2 sequence (P08253 110-660): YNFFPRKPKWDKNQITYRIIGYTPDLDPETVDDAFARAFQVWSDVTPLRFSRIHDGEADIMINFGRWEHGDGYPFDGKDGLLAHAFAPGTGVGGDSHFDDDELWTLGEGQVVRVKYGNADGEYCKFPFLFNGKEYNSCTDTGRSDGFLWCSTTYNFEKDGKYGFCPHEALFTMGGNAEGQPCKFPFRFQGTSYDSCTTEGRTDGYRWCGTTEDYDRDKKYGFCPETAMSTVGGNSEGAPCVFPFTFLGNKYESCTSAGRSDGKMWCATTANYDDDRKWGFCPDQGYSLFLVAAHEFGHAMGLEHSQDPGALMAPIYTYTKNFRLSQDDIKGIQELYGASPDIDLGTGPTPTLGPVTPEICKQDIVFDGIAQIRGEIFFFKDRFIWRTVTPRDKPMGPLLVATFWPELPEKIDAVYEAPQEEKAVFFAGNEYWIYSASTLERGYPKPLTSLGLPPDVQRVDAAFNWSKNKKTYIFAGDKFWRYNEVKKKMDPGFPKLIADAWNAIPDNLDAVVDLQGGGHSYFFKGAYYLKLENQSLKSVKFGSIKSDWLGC
The assay is described as follows: Competitive fluorogenic enzyme activity assay, MMP-2. As to conditions: fluorogenic substrate 5 μM, 5 nM enzyme, 30 min; read-out: IC50 toward MMP-2. On the procedure: as §1

Another assay concerns the target T3, recombinant human MMP-9 (Homo sapiens, UniProt P14780).
T3 construct: purchased R&D Systems 911-MP
The assay is described as follows: Competitive fluorogenic enzyme activity assay, MMP-9. As to conditions: fluorogenic substrate 5 μM, 5 nM enzyme, 30 min; read-out: IC50 toward MMP-9. On the procedure: as §1

The target in a further assay is T4, recombinant human MMP-12 (Homo sapiens, UniProt P39900).
T4 construct: purchased R&D Systems 917-MP
The assay is described as follows: Competitive fluorogenic enzyme activity assay, MMP-12. The following applies: for IC50: fluorogenic substrate 5 μM, 5 nM enzyme, 30 min, read-out: IC50 toward MMP-12. As for the experimental part:
Determination of the IC50 toward human MMP-2, MMP-9, MMP-12 and MMP-13 was performed by a competitive enzyme activity assay according to a literature procedure. […] The increase in fluorescence over time was measured using a SpectraMax M2e microplate reader (Molecular Devices Inc., CA, USA) with an excitation wavelength of 325 nm and an emission wavelength of 395 nm. The fluorescence intensity after 30 min was plotted as a function of the concentration of each of the compounds on a logarithmic scale to produce an inhibition curve that was subsequently fit with a sigmoidal function by a least squares method. The IC50 values were calculated from the inhibition curves using GraphPad Prism 6 (GraphPad Software, Inc., CA, USA).

T3 sequence (P14780 94-707): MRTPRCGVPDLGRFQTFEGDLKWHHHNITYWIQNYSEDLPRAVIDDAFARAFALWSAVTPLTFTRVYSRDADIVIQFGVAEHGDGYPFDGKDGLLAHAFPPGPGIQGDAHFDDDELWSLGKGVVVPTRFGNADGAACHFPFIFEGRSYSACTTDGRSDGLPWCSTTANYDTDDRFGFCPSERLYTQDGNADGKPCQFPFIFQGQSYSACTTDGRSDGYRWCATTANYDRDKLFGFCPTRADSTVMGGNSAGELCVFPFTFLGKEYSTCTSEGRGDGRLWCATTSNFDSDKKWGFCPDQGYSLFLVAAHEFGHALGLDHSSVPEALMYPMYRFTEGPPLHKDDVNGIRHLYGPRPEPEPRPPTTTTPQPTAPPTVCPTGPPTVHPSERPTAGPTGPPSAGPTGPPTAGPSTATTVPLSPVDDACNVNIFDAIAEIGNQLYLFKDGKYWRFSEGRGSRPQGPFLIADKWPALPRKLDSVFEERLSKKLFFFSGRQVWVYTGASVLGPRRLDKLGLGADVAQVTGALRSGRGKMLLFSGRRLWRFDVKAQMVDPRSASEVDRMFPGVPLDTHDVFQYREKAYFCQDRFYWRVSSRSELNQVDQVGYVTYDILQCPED
T4 sequence (P39900 106-470): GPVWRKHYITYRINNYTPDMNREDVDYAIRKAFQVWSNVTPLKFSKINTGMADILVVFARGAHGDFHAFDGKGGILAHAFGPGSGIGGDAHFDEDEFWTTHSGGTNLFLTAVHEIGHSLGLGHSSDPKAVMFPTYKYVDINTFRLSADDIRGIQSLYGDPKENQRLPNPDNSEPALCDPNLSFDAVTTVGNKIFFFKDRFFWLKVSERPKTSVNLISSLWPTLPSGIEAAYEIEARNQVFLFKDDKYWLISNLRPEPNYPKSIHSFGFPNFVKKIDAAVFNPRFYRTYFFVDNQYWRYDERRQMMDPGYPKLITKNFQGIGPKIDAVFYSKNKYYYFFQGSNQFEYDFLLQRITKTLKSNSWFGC

`CC(C)C[C@H](CC(=O)NO)C(=O)N[C@@H](Cc1ccc(I)cc1)C(=O)N[C@@H](CCCCNC(=O)C(C)F)C(N)=O` (stereo partly drawn) [IPFP]: the IC50 – broadly, the point on the concentration scale where inhibition reaches its midpoint – on recombinant human MMP-13 worked out at 0.0041 ± 0.0017 µM; at recombinant human MMP-2 it was 0.0044 ± 0.0023 µM; at recombinant human MMP-9, 0.0081 ± 0.002 µM; at recombinant human MMP-12, 0.0015 ± 0.0008 µM. Also, the “inverse IC50 ratio (selectivity toward MMP-12) relative to MMP-2” value at recombinant human MMP-12 (MMP-12 vs MMP-2) was determined as 2.9. Besides, the “inverse IC50 ratio (selectivity toward MMP-12) relative to MMP-9” value on recombinant human MMP-12 (MMP-12 vs MMP-9) worked out at 5.4. Further, at recombinant human MMP-12 (MMP-12 vs MMP-13), the “inverse IC50 ratio (selectivity toward MMP-12) relative to MMP-13” value is on record as 2.7.
Take `CC(C)C[C@H](CC(=O)NO)C(=O)N[C@@H](Cc1ccc(I)cc1)C(=O)N[C@@H](CCCCNC(=O)c1ccc(F)cc1)C(N)=O` [IPFB]: the 50% inhibitory concentration (IC50) at recombinant human MMP-13 stood at 0.0445 ± 0.0216 µM; at recombinant human MMP-2 it was 0.0291 ± 0.0093 µM; on recombinant human MMP-9, 0.148 ± 0.0306 µM; on recombinant human MMP-12, 0.0123 ± 0.004 µM.
Take `CC(C)C[C@H](CC(=O)NO)C(=O)N[C@@H](Cc1ccccc1)C(=O)N[C@@H](CCCCNC(=O)c1ccc(F)cc1)C(N)=O` [PFB]: the half-maximal inhibitory concentration (IC50) is 0.0661 ± 0.0261 µM at recombinant human MMP-13, 0.0777 ± 0.004 µM on recombinant human MMP-2, 0.178 ± 0.0242 µM at recombinant human MMP-9 and 0.0242 ± 0.0141 µM at recombinant human MMP-12.
Take `CC(C)C[C@H](CC(=O)NO)C(=O)N[C@@H](Cc1ccc(I)cc1)C(=O)N[C@@H](CCCCNC(=O)C(C)F)C(N)=O` (stereo partly drawn) [^18F-IPFP]: the concentration for half-maximal inhibition (IC50) at recombinant human MMP-12 is 0.0015 µM.
Turning to `CC(C)C[C@H](CC(=O)NO)C(=O)N[C@@H](Cc1ccccc1)C(=O)N[C@@H](CCCCNC(=O)C(C)F)C(N)=O` (stereo partly drawn) [PFP], the 50% inhibitory concentration (IC50) on recombinant human MMP-13 was found to be 0.0111 ± 0.0066 µM; on recombinant human MMP-2, 0.0125 ± 0.0071 µM; on recombinant human MMP-9, 0.0541 ± 0.0383 µM; at recombinant human MMP-12, 0.0045 ± 0.0025 µM.
As to `CC(C)C[C@H](CC(=O)NO)C(=O)N[C@@H](Cc1ccc(I)cc1)C(=O)N[C@@H](CCCCN)C(N)=O` [I-ML5], the concentration for half-maximal inhibition (IC50) on recombinant human MMP-13 was 0.0118 ± 0.0063 µM; on recombinant human MMP-2, 0.0037 ± 0.001 µM; at recombinant human MMP-9, 0.0138 ± 0.0015 µM; on recombinant human MMP-12, 0.0023 ± 0.0011 µM.
